From patent US12215135B2, “PDL2 compounds” (IO BIOTECH APS, priority 2016, dated 2025)
“Also recorded” adds a separate entry of the source.

Assays:
[1] = test system: PBMCs from patients with cancer and healthy donors; test: IFN-γ ELISPOT assay on PBMCs; assay type: cell-based, human; settings: for IFN-γ ELISPOT response, significance according to the DFR test / IFN-γ ELISPOT response, significance according to the DFR×2 rule: 5 selected PBMCs, patients with malignant melanoma; for specific T-cell responses, IFN-γ ELISPOT in vitro assay: PBMCs from HLA-A2+ patients with cancer, stimulated once in vitro with peptide; for immune responses, IFN-γ ELISPOT assay: PBMCs from healthy donors; for CD4+ T cell responses against long peptides, IFN-γ ELISPOT assay: PBMCs from 11 patients with cancer and 11 healthy donors
Experimental: (§1) We collected blood samples from patients with melanoma, renal cell carcinoma, non-hodgkin lymphoma, and ovarian cancer and from healthy. Samples were collected a minimum of four weeks after the termination of any kind of anti-cancer therapy. Peripheral blood mononuclear cells (PBMCs) were isolated using Lymphoprep™ (Alere A S, cat. 1114547) separation, HLA-typed and frozen in FCS with 10% DMSO (Sigma-Aldrich, cat. D5879-100ML). Tumor Infiltrating lymphocytes (TIL) from lesions from two melanoma patients were expanded using high dose IL-2 (6000 units/ml). The protocol was approved by the Scientific Ethics Committee for The Capital Region of Denmark and conducted in accordance with the provisions of the Declaration of Helsinki. Before study entry, a written informed consent from the patients was obtained.
(§2) The IFN-γ and TNF-α ELISPOT technique was performed as described previously (3). We performed the assays according to the guidelines provided by the cancer immunotherapy immunoguiding program (CIP; cimt.eu/cimt/files/dl/cip guidelines.pdf). Unless stated otherwise, PBMCs were stimulated once in vitro with peptide prior to analysis to extend the sensitivity of the assay. To measure T-cell reactivity, nitrocellulose-bottomed 96-well plates (MultiScreen MSIPN4W; Millipore) were coated overnight at room temperature or two days at 4° C. with the relevant antibodies. The wells were washed and blocked with X-vivo medium for 2 h. The PBMCs were added at different cell concentrations in triplicate wells, with PD-L2 peptide or with control peptide, and incubated overnight. The following day, the wells were washed, and the relevant biotinylated secondary antibody (Mabtech) was added, followed by the avidin-enzyme conjugate (AP-Avidin; Calbiochem/Invitrogen Life Technologies); finally, we added the enzyme substrate, NBT/BCIP (Invitrogen Life Technologies) for visualization. The spots on the developed ELISPOT plates were analyzed on a CTL ImmunoSpot S6 Ultimate-V analyzer with Immunospot software, v5.1.
An ELISPOT response was defined, based on the guidelines and recommendations provided by CIP and Moodie et al (5). The non-parametric distribution-free resampling (DFR) and more conservative DFR×2 statistical test were used for a formal comparison between antigen-stimulated wells and negative-control wells. The ELISPOT assays were performed at least in triplicate.

[2] = test system: PBMCs from patients with malignant melanoma; test: TNF-α ELISPOT assay on PBMCs; assay type: cell-based, human; settings: 5 selected PBMCs
Experimental: as §1
The IFN-γ and TNF-α ELISPOT technique was performed as described previously (3). We performed the assays according to the guidelines provided by the cancer immunotherapy immunoguiding program (CIP; cimt.eu/cimt/files/dl/cip guidelines.pdf). Unless stated otherwise, PBMCs were stimulated once in vitro with peptide prior to analysis to extend the sensitivity of the assay. […] The spots on the developed ELISPOT plates were analyzed on a CTL ImmunoSpot S6 Ultimate-V analyzer with Immunospot software, v5.1. […]

[3] = test system: PD-L2 T cell culture-A and -B (PD-L205-specific T cells); test: Intracellular cytokine staining of PD-L2-specific T-cell cultures; assay type: cell-based, human
Experimental: (§3) PBMCs from a patient with melanoma were stimulated with irradiated (30 Gy) autologous DCs, which had been pulsed with PD-L205 (PD-L2(16-25)) peptide (PBL:DC ratio 10:1) and IL-7 (40 U/ml) were added (PeproTech, London, UK). The next day, IL-12 (20 U/ml) was added (PeproTech, London, UK). At weekly intervals, we performed three identical stimulations, with irradiated autologous DCs loaded with PDL205 (PD-L2(16-25)), and IL-12 (20 U/ml) added the next day. Then, at weekly intervals, we stimulated the culture three more times with irradiated autologous PBLs loaded with PDL205 (PD-L2(16-25)) (culture:PBL ratio 1:1), but the next day, we added IL-2 (120 U/ml; Proleukin, Novartis).
(§4) The culture was enriched for specific T cells, either by staining with an anti-CD137-PE antibody (BD-Biosciences) or by employing a TNF-α-enrichment and detection kit (according to the procedure by Miltenyi Biotec). Next, we performed magnetic cell isolation with a MACs microbead column (according to the procedure by Miltenyi Biotec). The sorted cells were rapidly expanded by incubating with 0.6 μg anti-CD3 antibody (eBioscience, clone OKT3) and a high dose of IL-2 (Proleukin, Novartis).
(§5) To detect cell subpopulations that produced cytokines, we stimulated a PD-L1-specific T-cell culture (previously described (1)) and a PD-L2-specific T-cell culture with 5 μg/ml of relevant or irrelevant peptide, and incubated the cells for 5 h at 37° C. with 5% CO2. After 1 h of incubation, we added GolgiPlug (BD), diluted at 1:200. After 4 h, cells were washed twice with PBS, stained with fluorochrome-conjugated antibodies specific for surface markers (CD3-APC-H7, CD4-PerCP/FITC, CD8-Pacific Blue/PerCP, and Horizon Fixable Viability Stain 510, all from BD). Cells were washed, fixed, and permeabilized with Fixation/Permeabilization and Permeabilization Buffer (eBioscience), according to the manufacturer's instructions. Cells were subsequently stained with fluorochrome-conjugated antibodies to visualize intracellular cytokines. The following antibody-fluorochrome combinations were used: IFNγ-PE-CY7/APC (eBioscience) and TNFα-APC/BV421 (eBioscience). Relevant isotype controls were used to enable correct compensation and confirm antibody specificity. Stained cells were analyzed with a BD FACSCanto II flow cytometer. Analysis was performed with BD FACSDiva Software.

[4] = test system: PD-L2 T cell culture-A and -B (PD-L205-specific T cells); test: ELISPOT assay on PD-L2-specific T-cell cultures; assay type: cell-based, human; settings: both PD-L2 specific cultures
Experimental: as §2, with “v5.1. […]” for “v5.1.”

[5] = test system: TAP deficient T2 cells pulsed with peptide; test: 51chromium-release cytotoxicity assay, PD-L2-specific T-cell cultures against peptide-pulsed T2 cells; assay type: cell-based, human; settings: cultures A and B
Experimental: as §3, §4
(§6) Cytotoxicity Assay PD-L1-specific and PD-L2-specific T-cell-mediated cytotoxicity was measured with conventional 51chromium-release assays, as previously described (4). Target cells were TAP deficient T2 cells, pulsed with HIV-1 pol476-484 ([…], SEQ ID NO: 26), PD-L101 (PD-L1(15-23)), or PD-L205 (PD-L2(16-25)). siRNA-Mediated PD-L2 Silencing of DCs

[6] = test system: TAP-deficient T2 cells pulsed with peptide; test: 51Cr release assay, PD-L101-specific T-cell culture against peptide-pulsed T2 cells; assay type: cell-based, human; settings: different effector-to-target ratios
Experimental: as §6

[7] = test system: PD-L101-specific CD8+ T cells; test: Intracellular cytokine staining of PD-L101-specific T-cell culture; assay type: cell-based, human
Experimental: as §5

[8] = test system: T cells; settings: previously described, refs (1), (2), (6); cited from earlier work
[9] = test system: Tumor infiltrating T-lymphocytes from two melanoma patients; test: Intracellular cytokine staining of tumor infiltrating T-lymphocytes; assay type: cell-based, human; settings: TILs from two melanoma patients
Experimental: as §1
To detect cell subpopulations that produced cytokines, we stimulated a PD-L1-specific T-cell culture (previously described (1)) and a PD-L2-specific T-cell culture with 5 μg/ml of relevant or irrelevant peptide, and incubated the cells for 5 h at 37° C. with 5% CO2. After 1 h of incubation, we added GolgiPlug (BD), diluted at 1:200. […] Stained cells were analyzed with a BD FACSCanto II flow cytometer. […]

Sequence: QIAALFTVTV (Peptide fragment of human PDL2) [PD-L205, HLA-A2 restricted peptide fragment of human PD-L2]
- IFN-γ ELISPOT response, significance according to the DFR test [1]: statistically significant
- IFN-γ ELISPOT response, significance according to the DFR×2 rule [1]: statistically significant
- specific T-cell responses, IFN-γ ELISPOT in vitro assay [1]: detected immune responses
- ex vivo IFN-γ ELISPOT response ([1]; PBMCs from four donors, directly ex vivo without prior in vitro peptide stimulation, DFR rule): one of these donors showed an ex vivo IFN-γ response that was statistically significant
- immune responses, IFN-γ ELISPOT assay [1]: strong immune responses
- epitope dominance in eliciting immune responses ([1]; in general, across donors): dominant PD-L2 epitope; also recorded: strongest responses
- TNF-α ELISPOT response, significance according to the DFR test [2]: statistically significant
- CD4+ T cells with TNF-α release in response to peptide ([3]; PD-L2 T cell culture-A): about 4.5%
- CD8+ T cells with TNF-α release in response to peptide ([3]; PD-L2 T cell culture-A): ~1%
- CD4+ T cells with TNF-α release in response to peptide ([3]; PD-L2 T cell culture-B): about 7%
- CD8+ T cells with TNF-α release in response to peptide ([3]; PD-L2 T cell culture-B): ~2%
- IFN-γ and TNF-α T cell responses, ELISPOT [4]: T cell responses were observed
- recognition and lysis of peptide-pulsed T2 cells by PD-L2 (PD-L205)-specific T-cell cultures [5]: could indeed recognize
- recognition and lysis of peptide-pulsed T2 cells by PD-L2 (PD-L205)-specific T-cell cultures ([5]; listed as PDL205): recognized and lysed
- lysis of peptide-pulsed T2 cells by PD-L101-specific T cells [6]: no cytotoxicity was observed

Sequence: LLLMLSLEL (Peptide fragment of human PDL2) [PD-L201, HLA-A2 restricted peptide fragment of human PD-L2]
- IFN-γ ELISPOT response, significance according to the DFR test [1]: statistically significant
- IFN-γ ELISPOT response, significance according to the DFR×2 rule [1]: statistically significant
- specific T-cell responses, IFN-γ ELISPOT in vitro assay [1]: detected immune responses
- immune responses, IFN-γ ELISPOT assay [1]: weaker responses
- TNF-α ELISPOT response, significance according to the DFR test [2]: statistically significant

Sequence: ILKEPVHGV (HIV-1 (HLA-A2 high affinity binding epitope)) [HIV-1 pol476-484]
- recognition and lysis of peptide-pulsed T2 cells by PD-L2 (PD-L205)-specific T-cell cultures [5]: did not recognize; also recorded: did not kill
- lysis of peptide-pulsed T2 cells by PD-L101-specific T cells [6]: no cytotoxicity was observed

Sequence: LLNAFTVTV (PD-L101 (PDL1 peptide))
- spontaneous T-cell responses, IFN-γ ELISPOT test ([1]; PBMCs from patients with cancer that responded to PD-L205): did not detect any immune response
- recognition and lysis of peptide-pulsed T2 cells by PD-L2 (PD-L205)-specific T-cell cultures [5]: did not kill
- lysis of peptide-pulsed T2 cells by PD-L101-specific T cells [6]: only lysed T2-cells pulsed with PD-L101
- cytokine release (IFN-γ and TNF-α) from PD-L101-specific CD8+ T cells [7]: released cytokines only in response to PD-L101
- T cell response elicited by epitope [8]: strong T cell response

Sequence: FIFIATVIAL (Peptide fragment of human PDL2) [PD-L215, HLA-A2 restricted peptide fragment of human PD-L2]
- specific T-cell responses, IFN-γ ELISPOT in vitro assay [1]: detected immune responses

Sequence: SLELQLHQIAALFTVTVPKEL (Peptide fragment of human PDL2) [PD-L2long1]
- CD4+ T cell responses against long peptides, IFN-γ ELISPOT assay [1]: frequent but moderate responses

Sequence: MIFLLLMLSLELQLHQIAALFTVTV (Peptide fragment of human PDL2) [PD-L2long2]
- CD4+ T cell responses against long peptides, IFN-γ ELISPOT assay [1]: frequent but moderate responses
- IFN-γ responses, in vitro ELISPOT assay ([1]; PBMCs from four non-hodgkin lymphoma patients, DFR rule): All four patients showed responses that were statistically significant
- IFN-γ CD4+ T-cell responses, intracellular cytokine staining [9]: elicited IFN-γ CD4+ T-cell responses
